Reference: patent US20250296958A1, “GL[…] E[…]” (THE ADMINISTRATORS OF THE TULANE EDUCATIONAL FUND, priority 2022, published 2025)
Entries after “also recorded” stand apart in the source; their conditions may differ. Where a SMILES comes first, the peptide text is derived from it. Bridges are numbered along the chain shown (N, C = ends). [ ]: non-standard residue; d: D form. The star is where a group is joined. ξ: configuration not given here. X1 = OC[C@H]1O[C@@H](O[C@H]2[C@H](O)[C@@H](O)[C@H](*)O[C@@H]2CO)[C@H](O)[C@@H](O)[C@H]1O; βGlc = OC[C@H]1O[C@@H](*)[C@H](O)[C@@H](O)[C@@H]1O; d1Nal = N[C@H](Cc1cccc2ccccc12)C(=O)O; ξ1Nal = NC(Cc1cccc2ccccc12)C(=O)O

Columns and labels:
mu opioid receptor (MOR) = biological target: T1, mu opioid receptor (MOR) (Homo sapiens, UniProt P35372); experiment: Receptor binding, mu opioid receptor (NIMH PDSP); conditions: for reduction of MOR affinity by glycosylation: relative to unglycosylated reference; for MOR affinity, in words: comparison among analogs
T1 construct: NIMH Psychoactive Drug Screening Program (PDSP), University of North Carolina at Chapel Hill (performed the assay)
T1 sequence (P35372 whole entry): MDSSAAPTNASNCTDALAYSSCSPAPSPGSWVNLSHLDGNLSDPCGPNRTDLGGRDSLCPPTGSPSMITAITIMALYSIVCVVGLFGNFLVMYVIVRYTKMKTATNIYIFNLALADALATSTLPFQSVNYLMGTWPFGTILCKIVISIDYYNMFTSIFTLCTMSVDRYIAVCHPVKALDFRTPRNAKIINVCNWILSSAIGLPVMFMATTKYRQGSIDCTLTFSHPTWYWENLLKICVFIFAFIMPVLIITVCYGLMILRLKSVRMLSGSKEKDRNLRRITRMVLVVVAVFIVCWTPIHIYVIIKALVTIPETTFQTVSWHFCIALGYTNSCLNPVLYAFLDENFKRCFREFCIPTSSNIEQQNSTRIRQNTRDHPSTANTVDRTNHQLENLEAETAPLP
Excerpt: (§1) Receptor Binding Profiles and Ki: The receptor binding an Ki determinations were generously provided by the National Institute of Mental Health's Psychoactive Drug Screening Program (PDSP), Directed by Bryan L. Roth at the University of North Carolina at Chapel Hill and Project Officer Jamie Driscoll at NIMH, Bethesda MD, USA.

[1] = system: male and female CD-1 mice; experiment: Tail flick (TF) antinociception test; type: in vivo; conditions: for rank order of effectiveness, TF AUC: main effects of drug; for rank order of potency (ED50), TF: mg/kg calculations; for TF antinociception AUC: top dose (5.6 mg/kg), mean male and female
Method: Tail Flick (TF): CD1 mice were used for this test. The latency to withdraw the tail from a heat source was automatically measured (IITC, Woodland Hills, CA). […] Percent Maximum Possible Effect (% MPE) was determined as [(latency-baseline latency)/(9-baseline latency)]*100.
Statistics/Data Analysis: Data were analyzed with […] PRISM software (GraphPad Software, San Diego CA).

male and female DBA mice = experiment: Hot plate (HP) antinociception test; conditions: for rank order of potency (ED50), HP: both mg/kg and μmol/kg values; for HP antinociception, in words: s.c., 5 hr test
[2] = biological target: T2, delta opioid receptor (DOR) (Homo sapiens, UniProt P41143); experiment: Receptor binding, delta opioid receptor (NIMH PDSP)
T2 construct: NIMH Psychoactive Drug Screening Program (PDSP), University of North Carolina at Chapel Hill (performed the assay)
T2 sequence (P41143 whole entry): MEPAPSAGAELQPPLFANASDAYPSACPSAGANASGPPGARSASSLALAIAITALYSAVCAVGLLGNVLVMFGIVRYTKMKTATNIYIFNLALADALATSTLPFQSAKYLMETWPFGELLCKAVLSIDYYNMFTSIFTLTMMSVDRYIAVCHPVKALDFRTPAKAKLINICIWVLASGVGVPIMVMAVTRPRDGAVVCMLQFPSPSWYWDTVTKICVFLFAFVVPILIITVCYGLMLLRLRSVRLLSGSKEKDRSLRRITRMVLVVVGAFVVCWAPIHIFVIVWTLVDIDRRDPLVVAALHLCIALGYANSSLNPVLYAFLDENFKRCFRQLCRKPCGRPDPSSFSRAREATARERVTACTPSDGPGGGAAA
Excerpt: as §1

[3] = biological target: T3, kappa opioid receptor (KOR) (Homo sapiens, UniProt P41145); experiment: Receptor binding, kappa opioid receptor (NIMH PDSP); conditions: for kap/mu: ratio of KOR-to-MOR binding (Ki)
T3 construct: NIMH Psychoactive Drug Screening Program (PDSP), University of North Carolina at Chapel Hill (performed the assay)
T3 sequence (P41145 whole entry): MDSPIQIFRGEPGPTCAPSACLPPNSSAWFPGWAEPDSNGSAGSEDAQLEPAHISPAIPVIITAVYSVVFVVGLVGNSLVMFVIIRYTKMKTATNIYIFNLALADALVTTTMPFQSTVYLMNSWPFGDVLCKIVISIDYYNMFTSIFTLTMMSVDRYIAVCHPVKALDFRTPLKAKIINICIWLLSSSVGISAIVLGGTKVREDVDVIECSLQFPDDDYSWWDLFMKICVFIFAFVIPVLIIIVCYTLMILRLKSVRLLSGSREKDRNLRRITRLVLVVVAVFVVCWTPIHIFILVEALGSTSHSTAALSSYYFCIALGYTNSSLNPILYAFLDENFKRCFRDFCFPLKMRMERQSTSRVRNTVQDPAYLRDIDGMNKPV
Excerpt: as §1

[4] = system: delta opioid receptor (DOR); experiment: Receptor binding, delta opioid receptor (NIMH PDSP); conditions: ratio of DOR-to-MOR binding (Ki)
Excerpt: as §1

[5] = i.v.; cited from earlier work
male CD-1 mice = experiment: Conditioned place preference (CPP)
Method: Conditioned Place Preference (CPP): Male CD-1 mice were tested for CPP in a modified 2-chamber apparatus (Noldus, Leesburg, VA). The 20×20 cm chambers had distinct visual and tactile cues: 1) vertical striped walls with circular holes in a metal floor or 2) gray walls with clover-shaped holes. […] Eight arenas were counterbalanced for the cue pattern in the left and right chamber. Tests were conducted in 4 phases: habituation (days 1-2, 30′), baseline (day 4-5, 20′), conditioning (days 6-8, 40′), and testing (day 9, 20′). Two sessions per day were conducted at each phase (9:30 and 10:30 am) and animals were placed in the left chamber in session 1 and the right in session 2. For baseline and testing, both chambers were freely accessible. […] These protocols balanced exposure to the chambers, and for conditioning, minimized drug carry-over effects. CPP was determined as the change in time spent on the drug-associated side minus the time spent on that same side during baseline tests.
After two habituation and two baseline sessions, three conditioning days were conducted. […] The following day, a test session was conducted and CPP was determined as the change in time spent on the drug-associated side minus the time spent on that same side during baseline tests.

SMILES: NC(=O)[C@H](CO[C@@H]1O[C@H](CO)[C@@H](O)[C@H](O)[C@H]1O)NC(=O)[C@@H]1CCC(=O)NCCCC[C@@H](NC(=O)[C@@H](N)Cc2ccc(O)cc2)C(=O)N[C@@H](Cc2c[nH]c3ccccc23)C(=O)N[C@@H](Cc2ccccc2)C(=O)N1 [Analog A1, Tyr-c[D-Lys-Trp-Phe-Glu]-Ser(β-Glc)-NH2]
- reduction of MOR affinity by glycosylation (mu opioid receptor (MOR)): approximately 5 fold
- rank order of effectiveness, TF AUC [1]: A2>A7>A1>morphine>ZH853
- rank order of potency (ED50), TF [1]: A2>A7>A1>morphine >ZH853
- rank order of potency (ED50), HP (male and female DBA mice): A2>A7>A1>ZH853>morphine
- HP antinociception, in words (male and female DBA mice): not significantly greater than those of reference compounds

SMILES: NC(=O)[C@H](CO[C@@H]1O[C@H](CO)[C@@H](O[C@@H]2O[C@H](CO)[C@H](O)[C@H](O)[C@H]2O)[C@H](O)[C@H]1O)NC(=O)[C@@H]1CCC(=O)NCCCC[C@@H](NC(=O)[C@@H](N)Cc2ccc(O)cc2)C(=O)N[C@@H](Cc2c[nH]c3ccccc23)C(=O)N[C@@H](Cc2ccccc2)C(=O)N1 [Analog A2, Tyr-c[D-Lys-Trp-Phe-Glu]-Ser(β-Lact)-NH2]
- reduction of MOR affinity by glycosylation (mu opioid receptor (MOR)): approximately 5 fold
- TF antinociception (full) ([1]; 1.8 mg/kg): 100 % MPE
- dose lower than morphine for equal total TF antinociception, mg/kg basis ([1]; 1.8 mg/kg A2 matched to 10 mg/kg morphine): 5.55 fold
- rank order of effectiveness, TF AUC [1]: A2>A7>A1>morphine>ZH853
- rank order of potency (ED50), TF [1]: A2>A7>A1>morphine >ZH853
- TF antinociception, in words ([1]; s.c., time course and AUC): remained high at the 5-hour limit of the test
- TF antinociception AUC [1]: > 25000
- rank order of potency (ED50), HP (male and female DBA mice): A2>A7>A1>ZH853>morphine
- HP antinociception, in words (male and female DBA mice): robust antinociception; also recorded: significantly greater AUC

SMILES: NC(=O)[C@H](CO[C@@H]1O[C@H](CO)[C@@H](O)[C@H](O)[C@H]1O)NC(=O)CNC(=O)[C@@H]1CCC(=O)NCCCC[C@@H](NC(=O)[C@@H](N)Cc2ccc(O)cc2)C(=O)N[C@@H](Cc2c[nH]c3ccccc23)C(=O)N[C@@H](Cc2ccccc2)C(=O)N1 [Analog A3]
- MOR affinity, in words (mu opioid receptor (MOR)): lowest MOR affinity
- Ki [2]: ≥ 10000 nM
- KOR binding, in words [3]: increased KOR affinity

SMILES: NC(=O)[C@H](CO[C@@H]1O[C@H](CO)[C@@H](O)[C@H](O)[C@H]1O)NC(=O)[C@@H]1CCC(=O)NCCCC[C@@H](NC(=O)[C@@H](N)Cc2ccc(O)cc2)C(=O)N[C@H](Cc2cccc3ccccc23)C(=O)N[C@@H](Cc2ccccc2)C(=O)N1 [Analog A4] (H-Y[dK][d1Nal]FES(βGlc)-NH2; lactam 2-5)
- Ki (mu opioid receptor (MOR)): 63.5 nM
- additional reduction of MOR binding by D-Nal substitution of Trp at position 3 (mu opioid receptor (MOR)): 11 fold
- DOR binding, in words [2]: eliminated delta and kappa binding
- Ki [2]: ≥ 10000 nM
- del/mu [4]: 157
- KOR binding, in words [3]: eliminated delta and kappa binding
- Ki [3]: ≥ 10000 nM
- kap/mu [3]: 157

SMILES: NC(=O)[C@H](CO[C@@H]1O[C@H](CO)[C@@H](O[C@@H]2O[C@H](CO)[C@H](O)[C@H](O)[C@H]2O)[C@H](O)[C@H]1O)NC(=O)[C@@H]1CCC(=O)NCCCC[C@@H](NC(=O)[C@@H](N)Cc2ccc(O)cc2)C(=O)N[C@H](Cc2cccc3ccccc23)C(=O)N[C@@H](Cc2ccccc2)C(=O)N1 [Analog A5] (H-Y[dK][d1Nal]FES(X1)-NH2; lactam 2-5)
- Ki (mu opioid receptor (MOR)): 55.2 nM
- additional reduction of MOR binding by D-Nal substitution of Trp at position 3 (mu opioid receptor (MOR)): 11 fold
- DOR binding, in words [2]: eliminated delta and kappa binding
- Ki [2]: ≥ 10000 nM
- del/mu [4]: 181
- KOR binding, in words [3]: eliminated delta and kappa binding
- Ki [3]: ≥ 10000 nM
- kap/mu [3]: 181

SMILES: NC(=O)[C@H](CO[C@@H]1O[C@H](CO)[C@@H](O)[C@H](O)[C@H]1O)NC(=O)[C@@H]1CCC(=O)NCCCC[C@@H](NC(=O)[C@@H](N)Cc2ccc(O)cc2)C(=O)NC(Cc2cccc3ccccc23)C(=O)N[C@@H](Cc2ccccc2)C(=O)N1 (some centres unmarked) [Analog A6] (H-Y[dK][ξ1Nal]FES(βGlc)-NH2; lactam 2-5)
- MOR affinity, in words (mu opioid receptor (MOR)): did not reduce MOR affinity
- reduction of MOR affinity by glycosylation (mu opioid receptor (MOR)): approximately 5 fold
- MOR selectivity, in words (mu opioid receptor (MOR); versus DOR and KOR): least selective compound
- del/mu [4]: 57
- KOR binding, in words [3]: increased KOR affinity
- kap/mu [3]: 48

SMILES: NC(=O)[C@H](CO[C@@H]1O[C@H](CO)[C@@H](O)[C@H](O)[C@H]1O)NC(=O)[C@H](CO[C@@H]1O[C@H](CO)[C@@H](O)[C@H](O)[C@H]1O)NC(=O)[C@@H]1CCC(=O)NCCCC[C@@H](NC(=O)[C@@H](N)Cc2ccc(O)cc2)C(=O)N[C@@H](Cc2c[nH]c3ccccc23)C(=O)N[C@@H](Cc2ccccc2)C(=O)N1 [Analog A7, Tyr-c[D-Lys-Trp-Phe-Glu]-Ser(β-Glc)-Ser(β-Glc)-NH2]
- MOR affinity, in words (mu opioid receptor (MOR)): did not change MOR affinity
- reduction of MOR affinity by glycosylation (mu opioid receptor (MOR)): approximately 5 fold
- DOR binding, in words [2]: below detectable levels
- KOR binding, in words [3]: below detectable levels
- rank order of effectiveness, TF AUC [1]: A2>A7>A1>morphine>ZH853
- rank order of potency (ED50), TF [1]: A2>A7>A1>morphine >ZH853
- greater HP effectiveness versus control compounds (AUC) (male and female DBA mice; 1.8 mg/kg vs 5.6 mg/kg for controls): approximately 3 fold
- rank order of potency (ED50), HP (male and female DBA mice): A2>A7>A1>ZH853>morphine
- HP antinociception, in words (male and female DBA mice): robust antinociception; also recorded: significantly greater AUC

SMILES: NC(=O)CNC(=O)[C@@H]1CCC(=O)NCCCC[C@@H](NC(=O)[C@@H](N)Cc2ccc(O)cc2)C(=O)N[C@@H](Cc2c[nH]c3ccccc23)C(=O)N[C@@H](Cc2ccccc2)C(=O)N1 [ZH853, reference compound]
- MOR affinity, in words (mu opioid receptor (MOR)): subnanomolar Ki, showed the highest MOR affinity
- Ki [2]: 271 nM
- rank order of effectiveness, TF AUC [1]: A2>A7>A1>morphine>ZH853
- rank order of potency (ED50), TF [1]: A2>A7>A1>morphine >ZH853
- time of peak response, TF ([1]; s.c.): 30 to 40 min
- TF antinociception AUC [1]: 10000
- morphine equivalence [5]: about 1
- rank order of potency (ED50), HP (male and female DBA mice): A2>A7>A1>ZH853>morphine

SMILES: CN1CC[C@]23c4c5ccc(O)c4O[C@H]2[C@@H](O)C=C[C@H]3[C@H]1C5 [morphine, reference compound]
- TF antinociception (full) ([1]; 10 mg/kg, n=6): 100 % MPE
- rank order of potency (ED50), TF [1]: A2>A7>A1>morphine >ZH853
- time of peak response, TF ([1]; s.c.): 20 to 30 min
- CPP versus vehicle (male CD-1 mice; 3.2 mg/kg, one-way analysis, p<0.01): greater than vehicle
- conditioned place preference (CPP) (male CD-1 mice; 3 equiantinociceptive doses, s.c., n=12): produced CPP
- rank order of potency (ED50), HP (male and female DBA mice): A2>A7>A1>ZH853>morphine
